From patent publication US11566022B2, “3-(5-methoxy-1-oxoisoindolin-2-yl)piperidine-2,6-dione derivatives and uses thereof” (NOVARTIS AG, priority 2019, dated 2023)

Target: HiBit-WIZ fusion protein (Homo sapiens, UniProt O95785+Q96SW2)
Experiment: Quantification of WIZ protein levels in HiBit tag fusion protein assay (WIZ HiBit assay in 293T cells)
Format: cell-based
Set-up: Dmax: dose or concentration left out as unconfirmed
Conditions: for Dmax / remaining activity at up to 25 µM: HEK-293T; for Dmax / % degradation of WIZ (100-Amax): 100 minus Amax; for Dmax / remaining activity at up to 25 µM / % degradation of WIZ (100-Amax) / WIZ Amax: 293T cells; for Dmax: read-out: % degradation of WIZ (100-Amax); for remaining activity at up to 25 µM / WIZ Amax: DMSO-normalized, curve-fitted percentage of WIZ-HiBit remaining at 25 uM; for remaining activity at up to 25 µM: read-out: WIZ Amax; for DC50: read-out: WIZ AC50; for % degradation of WIZ (100-Amax): at 25 uM
[1] = WIZ HiBit assay in 293T cells, 10-point, 5-fold dose response, highest concentration 25 μM, about 18 hours

HiBit-WIZ fusion protein, sequence (O95785 whole entry, the tested form may be a part): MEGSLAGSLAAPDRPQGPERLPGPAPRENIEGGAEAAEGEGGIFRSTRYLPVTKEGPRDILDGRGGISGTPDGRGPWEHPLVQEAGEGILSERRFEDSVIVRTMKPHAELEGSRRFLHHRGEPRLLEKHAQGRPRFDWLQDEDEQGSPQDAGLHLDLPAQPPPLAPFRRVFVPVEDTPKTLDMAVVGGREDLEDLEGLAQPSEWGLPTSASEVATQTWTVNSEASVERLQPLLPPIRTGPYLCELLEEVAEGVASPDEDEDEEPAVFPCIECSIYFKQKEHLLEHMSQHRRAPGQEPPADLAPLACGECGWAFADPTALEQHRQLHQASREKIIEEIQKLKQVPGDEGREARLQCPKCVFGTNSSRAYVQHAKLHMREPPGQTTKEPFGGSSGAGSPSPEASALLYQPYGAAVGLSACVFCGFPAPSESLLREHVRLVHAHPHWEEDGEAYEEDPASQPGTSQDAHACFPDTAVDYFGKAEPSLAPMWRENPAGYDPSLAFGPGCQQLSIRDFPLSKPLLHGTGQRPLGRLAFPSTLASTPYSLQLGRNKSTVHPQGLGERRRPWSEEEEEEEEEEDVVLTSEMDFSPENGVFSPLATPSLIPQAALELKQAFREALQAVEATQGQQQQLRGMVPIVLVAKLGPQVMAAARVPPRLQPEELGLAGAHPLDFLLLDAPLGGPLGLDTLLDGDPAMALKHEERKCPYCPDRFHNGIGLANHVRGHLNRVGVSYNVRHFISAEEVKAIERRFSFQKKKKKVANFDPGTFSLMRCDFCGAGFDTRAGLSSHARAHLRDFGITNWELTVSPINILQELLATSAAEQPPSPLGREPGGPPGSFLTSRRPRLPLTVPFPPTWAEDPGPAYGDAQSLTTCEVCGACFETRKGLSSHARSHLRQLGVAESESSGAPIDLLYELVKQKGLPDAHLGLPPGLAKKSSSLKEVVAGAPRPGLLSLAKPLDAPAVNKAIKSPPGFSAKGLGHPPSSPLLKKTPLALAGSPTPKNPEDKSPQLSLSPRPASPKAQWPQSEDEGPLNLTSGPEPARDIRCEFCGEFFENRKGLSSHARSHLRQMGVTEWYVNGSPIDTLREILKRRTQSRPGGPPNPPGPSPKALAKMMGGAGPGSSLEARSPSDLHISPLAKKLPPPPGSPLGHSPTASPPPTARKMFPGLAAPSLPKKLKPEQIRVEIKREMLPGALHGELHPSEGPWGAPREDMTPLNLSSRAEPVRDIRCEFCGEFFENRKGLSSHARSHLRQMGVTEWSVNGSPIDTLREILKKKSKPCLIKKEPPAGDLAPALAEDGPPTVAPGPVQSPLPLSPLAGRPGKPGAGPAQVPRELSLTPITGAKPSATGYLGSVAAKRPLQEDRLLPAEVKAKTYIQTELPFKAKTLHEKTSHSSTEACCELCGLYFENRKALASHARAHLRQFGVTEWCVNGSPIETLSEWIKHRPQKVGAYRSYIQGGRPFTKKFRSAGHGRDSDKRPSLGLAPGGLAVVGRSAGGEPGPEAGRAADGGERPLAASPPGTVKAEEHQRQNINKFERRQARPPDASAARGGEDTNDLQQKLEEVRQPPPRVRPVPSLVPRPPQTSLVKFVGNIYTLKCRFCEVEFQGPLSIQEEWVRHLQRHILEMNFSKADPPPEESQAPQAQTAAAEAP
HiBit-WIZ fusion protein, sequence (Q96SW2 whole entry, the tested form may be a part): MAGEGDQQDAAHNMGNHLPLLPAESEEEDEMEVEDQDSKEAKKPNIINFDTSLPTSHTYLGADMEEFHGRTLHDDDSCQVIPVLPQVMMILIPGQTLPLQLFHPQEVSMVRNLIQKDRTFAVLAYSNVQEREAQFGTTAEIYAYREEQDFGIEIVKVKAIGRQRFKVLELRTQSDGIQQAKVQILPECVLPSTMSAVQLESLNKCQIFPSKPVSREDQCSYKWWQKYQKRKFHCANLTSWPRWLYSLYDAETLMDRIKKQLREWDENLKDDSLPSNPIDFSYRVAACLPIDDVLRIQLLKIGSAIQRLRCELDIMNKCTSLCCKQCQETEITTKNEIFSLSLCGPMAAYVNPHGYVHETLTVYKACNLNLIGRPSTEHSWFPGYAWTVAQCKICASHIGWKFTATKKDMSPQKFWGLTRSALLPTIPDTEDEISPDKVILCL
HiBit-WIZ fusion protein, sequence (Q16531 whole entry partner, the tested form may be a part): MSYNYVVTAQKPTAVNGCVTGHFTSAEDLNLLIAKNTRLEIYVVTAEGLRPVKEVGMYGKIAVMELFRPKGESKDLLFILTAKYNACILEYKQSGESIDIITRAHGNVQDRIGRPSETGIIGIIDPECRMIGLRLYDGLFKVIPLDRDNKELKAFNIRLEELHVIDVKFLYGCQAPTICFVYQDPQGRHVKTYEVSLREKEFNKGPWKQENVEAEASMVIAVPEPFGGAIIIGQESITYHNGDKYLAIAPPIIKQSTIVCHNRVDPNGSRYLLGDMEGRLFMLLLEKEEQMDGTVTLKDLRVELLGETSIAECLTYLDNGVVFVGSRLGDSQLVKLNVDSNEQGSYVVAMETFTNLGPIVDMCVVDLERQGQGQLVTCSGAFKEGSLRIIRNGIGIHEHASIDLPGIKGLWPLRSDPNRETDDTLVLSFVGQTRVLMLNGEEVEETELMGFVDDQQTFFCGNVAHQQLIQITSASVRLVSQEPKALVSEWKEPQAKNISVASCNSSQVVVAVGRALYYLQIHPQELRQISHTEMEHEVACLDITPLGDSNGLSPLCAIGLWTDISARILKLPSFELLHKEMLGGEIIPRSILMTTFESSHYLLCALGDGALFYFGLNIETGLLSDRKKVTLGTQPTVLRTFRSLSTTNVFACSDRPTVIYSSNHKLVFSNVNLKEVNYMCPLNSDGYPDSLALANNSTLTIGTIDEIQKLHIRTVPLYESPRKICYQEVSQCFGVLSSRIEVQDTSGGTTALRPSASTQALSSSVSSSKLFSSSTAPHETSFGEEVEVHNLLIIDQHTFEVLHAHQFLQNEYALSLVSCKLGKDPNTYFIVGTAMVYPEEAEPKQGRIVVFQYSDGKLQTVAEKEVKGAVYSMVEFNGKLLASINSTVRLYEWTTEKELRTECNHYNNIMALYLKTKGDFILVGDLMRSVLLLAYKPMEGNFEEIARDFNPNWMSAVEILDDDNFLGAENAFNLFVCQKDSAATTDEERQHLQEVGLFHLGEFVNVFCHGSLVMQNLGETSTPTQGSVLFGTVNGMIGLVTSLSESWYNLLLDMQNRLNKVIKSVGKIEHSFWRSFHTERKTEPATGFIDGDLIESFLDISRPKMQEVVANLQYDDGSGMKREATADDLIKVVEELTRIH

| SMILES | Dmax | remaining activity at up to 25 µM | DC50 [1] | % degradation of WIZ (100-Amax) | WIZ Amax | AC50 [1] |
| --- | --- | --- | --- | --- | --- | --- |
| Cc1cc(CN2CCCC[C@H]2COc2ccc3c(c2)CN(C2CCC(=O)NC2=O)C3=O)no1 (stereo partly drawn) [Compound I-50by] | 25.7% | 74.3% | > 25 µM | – | – | – |
| CCN1CCC[C@H]1C(C)Oc1ccc2c(c1)CN(C1CCC(=O)NC1=O)C2=O (single isomer, unassigned) [Compound I-27] | – | – | > 25 µM | 15.6% | 84.4% | – |
| CC(C)(C)N1CCN(c2ccc(CN3CCCC[C@@H]3COc3ccc4c(c3)CN(C3CCC(=O)NC3=O)C4=O)cc2)CC1 (stereo partly drawn) [Compound I-229, 3-(5-(((R)-1-(4-(4-(tert-butyl)piperazin-1-yl)benzyl)piperidin-2-yl)methoxy)-1-oxoisoindolin-2-yl)piperidine-2,6-dione] | 73.5% | 26.6% | 0.002 µM | – | – | – |
| O=C1CCC(N2Cc3cc(OC[C@@H]4CCCCN4Cc4ccnc(N5CCOCC5)c4)ccc3C2=O)C(=O)N1 (stereo partly drawn) [Compound I-50bn] | 76.2% | 23.8% | 0.897 µM | – | – | – |
| O=C1CCC(N2Cc3cc(OC[C@H]4CCCCN4Cc4c(F)cccc4F)ccc3C2=O)C(=O)N1 (stereo partly drawn) [Compound I-147] | 71.6% | 28.4% | 1.08 µM | – | – | – |
| CCn1cc(CN2CCCC[C@@H]2COc2ccc3c(c2)CN(C2CCC(=O)NC2=O)C3=O)cn1 (stereo partly drawn) [Compound I-50eo] | 94% | 6% | 0.074 µM | – | – | – |
| O=C1CCC(N2Cc3cc(OC[C@H]4CCCCN4CC4CCOC4)ccc3C2=O)C(=O)N1 (single isomer, unassigned) [Compound I-213] | – | – | 0.12 µM | 55.68% | 44.32% | – |
| COc1ccc(C(C)(C)C(=O)N2CCCC[C@H]2COc2ccc3c(c2)CN(C2CCC(=O)NC2=O)C3=O)cc1 (stereo partly drawn) [Compound I-72fz] | 9.1% | 90.9% | > 25 µM | – | – | – |
| CCc1ncc(C(=O)N2CCCC[C@H]2COc2ccc3c(c2)CN(C2CCC(=O)NC2=O)C3=O)s1 (stereo partly drawn) [Compound I-72jf] | 34.2% | 65.8% | > 25 µM | – | – | – |
| O=C1CCC(N2Cc3cc(OC[C@@H]4CCCCN4C(=O)c4cnc(N5CCCCC5)s4)ccc3C2=O)C(=O)N1 (stereo partly drawn) [Compound I-72fi] | 70.2% | 29.8% | 2.05 µM | – | – | – |
| O=C1CCC(N2Cc3cc(OC[C@H]4CCCCN4Cc4cccn5ccnc45)ccc3C2=O)C(=O)N1 (stereo partly drawn) [Compound I-50ca] | 76.3% | 23.7% | 0.239 µM | – | – | – |
| O=C1CCC(N2Cc3cc(OC[C@@H]4CCCCN4C(=O)c4cccc(Cn5cncn5)c4)ccc3C2=O)C(=O)N1 (stereo partly drawn) [Compound I-72bi] | 3.9% | 96.1% | > 25 µM | – | – | – |
| O=C1CCC(N2Cc3cc(OC[C@@H]4CCCCN4Cc4ccc(-n5nccn5)cc4)ccc3C2=O)C(=O)N1 (stereo partly drawn) [Compound I-50ai] | 77.8% | 22.2% | 0.591 µM | – | – | – |
| Cc1nc2ccccn2c1CN1CCCC[C@@H]1COc1ccc2c(c1)CN(C1CCC(=O)NC1=O)C2=O (stereo partly drawn) [Compound I-50cd] | 69.7% | 30.3% | 3.74 µM | – | – | – |
| CC(C)c1ccccc1C(=O)N1CCCC[C@H]1COc1ccc2c(c1)CN(C1CCC(=O)NC1=O)C2=O (stereo partly drawn) [Compound I-72gi] | 14.9% | 85.1% | > 25 µM | – | – | – |
| O=C1CCC(N2Cc3cc(OC[C@@H]4CCCCN4C(=O)C45CC(F)(C4)C5)ccc3C2=O)C(=O)N1 (stereo partly drawn) [Compound I-72iv] | 2.2% | 97.8% | > 25 µM | – | – | – |

| SMILES | Dmax | remaining activity at up to 25 µM | DC50 [1] | % degradation of WIZ (100-Amax) | WIZ Amax | AC50 [1] |
| --- | --- | --- | --- | --- | --- | --- |
| O=C1CCC(N2Cc3cc(OC[C@@H]4CCCCN4Cc4cccc(N5CCCC5)c4)ccc3C2=O)C(=O)N1 (stereo partly drawn) [Compound I-50aa] | 95.1% | 4.9% | 0.412 µM | – | – | – |
| CC(C)c1cc(C(=O)N2CCCC[C@H]2COc2ccc3c(c2)CN(C2CCC(=O)NC2=O)C3=O)on1 (stereo partly drawn) [Compound I-72dp] | 30.5% | 69.5% | > 25 µM | – | – | – |
| CCN(CC)CC(=O)N1CCCC[C@H]1COc1ccc2c(c1)CN(C1CCC(=O)NC1=O)C2=O (stereo partly drawn) [Compound I-72cp] | 12.1% | 87.9% | > 25 µM | – | – | – |
| O=C1CCC(N2Cc3cc(OC[C@H]4CCCCN4CC4CC(O)C4)ccc3C2=O)C(=O)N1 (stereo partly drawn) [I-141a, I-141b, 3-(5-(((R)-1-(((1r,3R)-3-hydroxycyclobutyl)methyl)piperidin-2-yl)methoxy)-1-oxoisoindolin-2-yl)piperidine-2,6-dione and 3-(5-(((R)-1-(((1s,3S)-3-hydroxycyclobutyl)methyl)piperidin-2-yl)methoxy)-1-oxoisoindolin-2-yl)piperidine-2,6-dione] | – | – | – | 72.36% | 27.64% | 2.46 µM |
| O=C1CCC(N2Cc3cc(OC[C@H]4CCCCN4Cc4ccccc4Cn4cncn4)ccc3C2=O)C(=O)N1 (stereo partly drawn) [Compound I-50dd] | 39.6% | 60.4% | > 25 µM | – | – | – |
| COC(=O)c1nn(-c2cccc(C(F)(F)F)c2)cc1CN1CCCC[C@@H]1COc1ccc2c(c1)CN(C1CCC(=O)NC1=O)C2=O (stereo partly drawn) [Compound I-50dc] | 39.8% | 60.2% | > 25 µM | – | – | – |
| O=C1CCC(N2Cc3cc(OC[C@@H]4CCCCN4Cc4ccnc5[nH]ccc45)ccc3C2=O)C(=O)N1 (stereo partly drawn) [Compound I-50cx] | 92.6% | 7.4% | 0.143 µM | – | – | – |
| COc1cc(C(=O)N2CCCC[C@H]2COc2ccc3c(c2)CN(C2CCC(=O)NC2=O)C3=O)c(F)cn1 (stereo partly drawn) [Compound I-72gn] | 26.4% | 73.6% | > 25 µM | – | – | – |
| N#Cc1cc(CN2CCCC[C@H]2COc2ccc3c(c2)CN(C2CCC(=O)NC2=O)C3=O)ccn1 (stereo partly drawn) [Compound I-50bl] | 17.6% | 82.4% | > 25 µM | – | – | – |
| COc1ccccc1CN1CCCC[C@H]1COc1ccc2c(c1)CN(C1CCC(=O)NC1=O)C2=O (stereo partly drawn) [Compound I-50d] | 78.3% | 21.7% | 0.784 µM | – | – | – |
| N#Cc1ccc(CCC(=O)N2CCCC[C@H]2COc2ccc3c(c2)CN(C2CCC(=O)NC2=O)C3=O)cc1 (stereo partly drawn) [Compound I-72gh] | 10.9% | 89.1% | > 25 µM | – | – | – |
| O=C1CCC(N2Cc3cc(OC[C@@H]4CCCCN4C(=O)c4ccc(Cl)c(I)c4)ccc3C2=O)C(=O)N1 (stereo partly drawn) [Compound I-72ad] | 52.8% | 47.2% | 17.4 µM | – | – | – |
| O=C1CCC(N2Cc3cc(OC[C@H]4CCCCN4Cc4ccccc4OCCN4CCOCC4)ccc3C2=O)C(=O)N1 (stereo partly drawn) [Compound I-50ed] | 92.3% | 7.7% | 0.1 µM | – | – | – |
| Cc1cccc(-c2n[nH]cc2CN2CCCC[C@@H]2COc2ccc3c(c2)CN(C2CCC(=O)NC2=O)C3=O)c1 (stereo partly drawn) [Compound I-50dj] | 99.7% | 0.3% | 2.45 µM | – | – | – |
| O=C1CCC(N2Cc3cc(OC[C@@H]4CCCCN4Cc4ccc(N5CCCC5=O)cc4)ccc3C2=O)C(=O)N1 (stereo partly drawn) [Compound I-50o] | 58.4% | 41.6% | 12.5 µM | – | – | – |
| COc1ccc(C(=O)N2CCCC[C@H]2COc2ccc3c(c2)CN(C2CCC(=O)NC2=O)C3=O)cc1OCc1ccccc1 (stereo partly drawn) [Compound I-72d] | 71.6% | 28.4% | 1.9 µM | – | – | – |
